Reference: PMC9511493, “2-(Fluoromethoxy)-4′-(S-methanesulfonimidoyl)-1,1′-biphenyl (UCM-1306), an Orally Bioavailable Positive Allosteric Modulator of the Human Dopamine D1 Receptor for Parkinson’s Disease” (Journal of Medicinal Chemistry, 2022)
Where “and” joins values, the source holds several entries; their conditions need not be identical. Equal values may be shown once.

Key:
human D4R = biological target: T1, human D4R (Homo sapiens, UniProt P21917); assay: PatHunter beta-arrestin assay at human D4R; type: cell-based; conditions: 10 μM compound
T1 construct: host or cells: cells supplied with the PatHunter Beta-arrestin eXpress GPCR assay kit
T1 sequence (P21917 1-419): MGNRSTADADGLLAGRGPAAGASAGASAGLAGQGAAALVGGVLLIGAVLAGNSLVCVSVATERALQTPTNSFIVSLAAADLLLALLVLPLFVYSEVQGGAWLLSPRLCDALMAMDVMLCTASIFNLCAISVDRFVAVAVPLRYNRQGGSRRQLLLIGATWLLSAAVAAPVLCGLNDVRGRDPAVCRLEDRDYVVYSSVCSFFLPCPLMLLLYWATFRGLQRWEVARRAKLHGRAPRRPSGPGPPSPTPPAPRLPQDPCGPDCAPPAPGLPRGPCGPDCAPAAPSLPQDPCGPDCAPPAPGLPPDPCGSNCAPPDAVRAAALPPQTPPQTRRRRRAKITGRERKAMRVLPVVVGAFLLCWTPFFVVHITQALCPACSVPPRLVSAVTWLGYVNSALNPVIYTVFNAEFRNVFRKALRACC
Method: Functional studies at both human D3 and D4 receptors were carried out in human D3 and D4 receptors, using a PatHunter Beta-arrestin eXpress GPCR assay kit from DiscoverX. Briefly, cells were plated and maintained for 48 h at 37 °C in a 5% CO2 atmosphere in cell plating reagent provided in the kit. After this time, test compounds were added to the cells and incubated for 30 min at 37 °C. Dopamine was added to the cells and incubated for an additional 90 min at 37 °C. Cells were then treated with the working detection solution provided with the kit for 1 h and beta-arrestin translocation was measured by luminescence detection (integration time = 500 ms) in a Tecan M1000 Genius Pro reader. Data were normalized to dopamine maximum effect and fitted to a 4-parameter logistic equation using Prism v2.1 software (GraphPad Inc).

human D2R = biological target: T2, human D2R (Homo sapiens, UniProt P14416); assay: functional cAMP assay at recombinant human D2R in CHO cells; type: cell-based; conditions: 10 μM compound
T2 construct: expressed in transfected cells; host or cells: in-house CHO cell line
T2 sequence (P14416 whole entry): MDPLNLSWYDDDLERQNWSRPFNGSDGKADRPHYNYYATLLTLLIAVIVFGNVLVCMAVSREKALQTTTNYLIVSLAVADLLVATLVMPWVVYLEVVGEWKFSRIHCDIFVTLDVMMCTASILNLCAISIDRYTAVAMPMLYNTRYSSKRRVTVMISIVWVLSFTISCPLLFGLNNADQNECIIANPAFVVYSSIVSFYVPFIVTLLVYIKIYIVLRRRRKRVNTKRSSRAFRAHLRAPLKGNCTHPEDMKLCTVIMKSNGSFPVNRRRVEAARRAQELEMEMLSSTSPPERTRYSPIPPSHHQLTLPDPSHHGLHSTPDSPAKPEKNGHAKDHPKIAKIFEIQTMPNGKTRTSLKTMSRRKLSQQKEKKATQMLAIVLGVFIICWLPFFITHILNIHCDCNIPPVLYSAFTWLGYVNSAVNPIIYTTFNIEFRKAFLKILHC
Method: Functional studies at human D1 and D2 receptors were carried out in endogenously expressed human D1R in the SK-N-MC cell line (ATCC), and recombinant human D2R stably transfected in an in-house CHO cell line. Cells were thawed and seeded into a black 96-well plate (1 × 10^4 cells/well for SK-N-MC cell line, 5 × 10^3 cells/well for CHO cell line) in Opti-MEM containing 500 μM IBMX (3-isobutyl-1-methylxanthine). Test compounds were added to the cells and incubated for 15 min at 25 °C for D1R, and for 5 min at 37 °C for D2R. After this time, dopamine was added to the corresponding wells and incubated for additional 15 min at 25 °C for D1R, and 10 min at 37 °C for D2R. Next, treated cells were lysed (for the D2R assay, cells were previously treated with 10 μM forskolin for 5 min at 37 °C) and the cAMP concentration was measured by HTRF, using a kit from Cisbio. HTRF was read in a Tecan M1000 Genius Pro reader (λexcitation = 320 nm, λemission = 620 and 665 nm, 30 flashes), and data were normalized to the dopamine maximum effect and fitted to a 4-parameter logistic equation by using Prism v2.1 software (GraphPad Inc).

CYP3A4 = biological target: T3, CYP3A4 (Homo sapiens, UniProt P08684); assay: cytochrome inhibition, fluorescence assay, CYP3A4; type: in vitro ADME
T3 construct: host or cells: insect cell microsomes
T3 sequence (P08684 whole entry): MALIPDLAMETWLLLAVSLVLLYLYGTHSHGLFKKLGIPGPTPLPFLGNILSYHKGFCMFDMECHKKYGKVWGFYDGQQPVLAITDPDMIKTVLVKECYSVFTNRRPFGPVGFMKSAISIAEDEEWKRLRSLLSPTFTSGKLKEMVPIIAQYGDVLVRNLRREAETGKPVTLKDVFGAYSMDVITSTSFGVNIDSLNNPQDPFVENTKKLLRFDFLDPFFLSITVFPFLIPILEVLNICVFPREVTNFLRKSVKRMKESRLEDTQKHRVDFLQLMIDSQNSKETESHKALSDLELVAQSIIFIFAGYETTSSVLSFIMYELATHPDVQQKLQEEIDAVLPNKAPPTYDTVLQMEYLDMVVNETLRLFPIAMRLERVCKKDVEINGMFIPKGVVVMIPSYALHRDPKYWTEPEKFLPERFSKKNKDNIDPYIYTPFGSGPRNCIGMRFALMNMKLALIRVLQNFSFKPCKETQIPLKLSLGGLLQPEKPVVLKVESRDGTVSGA
Method: Cytochrome inhibition. The objective of this study was to screen the potential of test […]
performed using recombinant isoforms CYP1A2, CYP2C9, CYP2C19, CYP2D6, and CYP3A4, and probe substrates with fluorescent detection.
Assays were conducted in a 200 µL volume in 96-well microtiter plates (COSTAR 3915).
Addition of cofactor-buffer mixture (KH2PO4 buffer, 1.3 mM NADP, 3.3 mM MgCl2, 3.3 mM glucose -6- phosphate, and 0.4 U/mL glucose -6- phosphate dehydrogenase), supersomes control, standard inhibitors (furafyline, tranylzypromine, ketoconazole, sulfaphenazole, and quinidine from Sigma Aldrich) and test compound to the plate was carried out by a liquid handling station (Zephyr Caliper). The plate was then pre-incubated at 37 °C for 5 min, and the reaction was initiated by the addition of the pr e - warmed enzyme/substrate (E/S) mix. […]
Fluorescence per well was measured using a fluorescence plate reader (Tecan Infinite M1000 pro) and percentage of inhibition was calculated. hERG ion channel inhibition. […]

| SMILES | enhancement of DA Emax at human D4 receptor (human D4R) | enhancement of DA Emax at human D2 receptor (human D2R) | IC50 (CYP3A4; read-out: CYP34A (IC50)) [nM] | CYP34A (%) (CYP3A4; percentage of inhibition at 10 μM) |
| --- | --- | --- | --- | --- |
| O=Cc1ccc(-c2ccccc2OCF)cc1 [Compound 3, 2′-(Fluoromethoxy)[1,1′-biphenyl]-4-carbaldehyde] | did not enhance DA Emax | did not enhance DA Emax | 2820 ± 320 | – |
| CS(=N)(=O)c1ccc(-c2ccccc2OCF)cc1 (stereo not drawn) [Compound 26, 2-(Fluoromethoxy)-4′-(S-methanesulfonimidoyl)-1,1′-biphenyl] | subtype selectivity | subtype selectivity | – | 9% and 9 ± 1% |
